Laboratory results published in patent US20210290721A1, “ORAL FORMULATIONS FOR PROMOTING CELLULAR PURIFICATION” (NSE Products, Inc., priority 2011, published 2021).

Tests used:
iNOS/Nos2 = test: RT-qPCR expression of iNOS/Nos2 in lung of young mice; type: in vivo, C57BL/6J mice; conditions: diet supplemented from 8 to 22 weeks of age, treated vs YC
From the text: C57BL/6J mice were obtained at 6 weeks of age and individually housed in shoebox cages and provided with 24 grams (˜84 kcal) of AIN-93^M diet per week (7 grams on Monday and Wednesday and 10 grams on Friday). Starting at 8 weeks of age and continuing until 22 weeks of age, mice were either 1) maintained on the AIN93^M diet (Young Controls, YC); 2) fed a Calorie Restricted (CR) diet providing 63 kcal/week of a modified AIN93^M formulation; or 3) were assigned to an AIN93^M diet supplemented with one of several plant extracts, vitamins or phytochemicals; the amount of each ingredient per kilogram diet varied depending on the experimental ingredient studied. At 22 weeks of age, tissues were collected from mice, flash-frozen in liquid nitrogen and stored at −80° C. for later analysis.
To determine if CR or an ingredient positively influenced the Nrf2 pathway to regulate expression of xenobiotic metabolism genes and oxidative stress genes and/or positively influenced genes responsible for regulation of inflammation, we performed quantitative real-time PCR (RT-qPCR) analysis on RNA isolated from entire livers and lungs from all groups of mice. Briefly, the magnitude of change was determined for each gene, comparing the young control (YC) group vs. the caloric or energy restriction (CR) group and YC vs. Treated mice. […]

GCLC = test: RT-qPCR expression of GCLC in gastrocnemius muscle of old mice; type: in vivo, B6C3F1 mice; conditions: for effect on age-related decreases in the expression of GCLC: YC vs OC and OC vs old treated mice; for GCLC expression: diet supplemented from 14 to 30 months of age, old treated vs old controls (OC)
From the text: (§1) B6C3F1 mice were obtained and housed as in Example 1. For the young control (YC) group, starting at 8 weeks of age and continuing until 22 weeks of age, mice were maintained on the AIN93^M diet; For the old animal groups, starting at 14 months of age and continuing until 30 months of age, mice were either 1) maintained on the AIN93^M diet (old controls, OC); 2) fed a calorie or energy restricted (CR) diet providing 63 kcal/week of a modified AIN93^M formulation; or 3) were assigned to an AIN93^M diet supplemented with one of several plant extracts, vitamins or phytochemicals; the amount of each ingredient per kilogram diet varied depending on the experimental ingredient studied. At the end of the feeding period, tissues were collected from the gastrocnemius muscles of the mice, flash-frozen in liquid nitrogen and stored at −80° C. for later analysis.
To determine if CR or an ingredient opposed age-related declines in the Nrf2 pathway to regulate expression of xenobiotic metabolism genes and oxidative stress genes, we performed quantitative real-time PCR (RT-qPCR) analysis on RNA isolated from gastrocnemius muscle from all groups of mice. The magnitude of change was determined for each gene (YC vs. OC and OC vs Old treated mice). Two-tailed t-tests (assuming equal variance) were used to determine if the change in expression for individual genes was statistically significant. The magnitude of the change in expression is reported as “fold change” values which are log 2-adjusted to fit normality assumptions for statistical analyses.
A panel of 5 genes representative of the Nrf2 pathway was selected for screening the ingredients: GCLM, GCLC, GSR, GSTA1, and NQO1. Ingredients screened in the muscle included: alpha lipoic acid, CoQ10, Pomegranate, Resveratrol and others.

[1] = test system: Nrf2/ARE/detoxification related genes; test: RT-qPCR gene expression screening in liver of young mice fed ingredient-supplemented diet; type: in vivo, C57BL/6J mice; conditions: diet supplemented from 8 to 22 weeks of age, treated vs young control (YC)
GSR = test: RT-qPCR expression of GSR in gastrocnemius muscle of old mice; type: in vivo, B6C3F1 mice
From the text: as §1, with “analysis. To determine if CR or an ingredient opposed age-related declines in the Nrf2 pathway to regulate expression of xenobiotic metabolism genes and oxidative stress genes, we performed quantitative real-time PCR (RT-qPCR) analysis on RNA isolated from gastrocnemius muscle from all groups of mice. The magnitude of change was determined for each gene (YC vs. OC and OC vs Old treated mice). Two-tailed t-tests (assuming equal variance) were used to determine if the change in expression for individual genes was statistically significant. […]” for “analysis.”

In the case of `COC1=C(OC)C(=O)C(C/C=C(\C)CC/C=C(\C)CC/C=C(\C)CC/C=C(\C)CC/C=C(\C)CC/C=C(\C)CC/C=C(\C)CC/C=C(\C)CC/C=C(\C)CCC=C(C)C)=C(C)C1=O` [CoQ10, coenzyme Q10], the “change in iNOS/Nos2 expression in the lung” value (iNOS/Nos2) is reported as “Modest downregulation”, the “effect on age-related decreases in the expression of GCLC” value (GCLC) is reported as “opposed age related decreases” and the GCLC expression (GCLC) is reported as “upregulated”.
In the case of `O=C(O)CCCCC1CCSS1` (stereo not drawn) [alpha lipoic acid], the “effect on age-related decreases in the expression of GCLC” value (GCLC) is reported as “opposed age-related decreases”, the GCLC expression (GCLC) is reported as “upregulated” and the “gene expression changes in the liver (impact of ingredient)” value [1] is reported as “greatest positive impact”. The “effect on age-related decreases in the expression of GSR” value (GSR; YC vs OC and OC vs old treated mice) was “opposed age-related decreases” and the GSR expression (GSR; diet supplemented from 14 to 30 months of age, old treated vs OC) was “upregulated”.
For `O=c1c(O)c(-c2ccc(O)c(O)c2)oc2cc(O)cc(O)c12` [quercetin, Quercetin], the “change in iNOS/Nos2 expression in the lung” value (iNOS/Nos2) was “Modest downregulation”.
